The source of these data is patent US12286435B2, “Compound having benzo seven-membered ring structure, preparation method therefor, and use thereof” (BIONNA (BEIJING) MEDICAL TECHNOLOGY CO., LTD., priority 2019, dated 2025).

Structures are written as SMILES. Values joined by “and” are separate entries in the source; they are usually repeats but may differ in a detail not shown here. Equal entries are not always repeated.

Assay [1] concerns multiple myeloma MM.1S cell line. Briefly: Cell viability (CCK-8), multiple myeloma MM.1S. The assay is classed as cell-based. To be noted: Homo sapiens, MM1.S, 96 h, MM.1S cells, 4 days, CCK-8, 50% inhibition of cell growth. The gist of the method: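 Cells (about 3000-5000 per well) exposed to 3-fold serial dilutions of compound for 4 days at 37° C, 5% CO2. CCK-8 added 2-4 h, absorbance at 450 nm, viability normalised to untreated cells after medium-only blank subtraction; IC50 is concentration giving 50% growth inhibition.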

Assay [2] deals with leukemia MV4-11 cell line. Briefly: Cell viability (CCK-8), leukemia MV4-11. The assay is classed as cell-based. Particulars: Homo sapiens, 96 h; MV4-11 cells, 4 days, CCK-8, 50% inhibition of cell growth. Here is the method: (§1) 3. Determination of cell viability of the compound
(§2) The sample to be tested was dissolved with 100% dimethyl sulfoxide to prepare a 20 mM stock solution of the compound, which was diluted with 100% dimethyl sulfoxide to the highest compound concentration required for the experiment (2.5 mM).
(§3) First, 145 uL of a complete cell culture medium was added to wells B1-G1 of a 96-well flat-bottomed tansparent cell culture plate, and 100 uL of the complete medium was added to wells B2-G12, respectively. Then, 5 uL of the 2.5 mM solution of the compound was added to wells B1-D1 and E1-G1 respectively, and then diluted gradiently by 3-folds to B12-D12 and E12-G12 in sequence. Finally, 50 uL of the solution of the cells to be tested was added to each well, with about 3000-5000 cells per well, and a total volume of 150 uL per well.
(§4) In the experiment, in addition to the tested compound, two other control groups were set up: 1) a control group adding the cells and the complete medium, but without adding the compound; 2) a control group adding the complete medium only, without adding the cells and the compound. The 96-well plate was placed in a 37° C. cell culture incubator containing 5% carbon dioxide for 4 days, added with 15 uL of a CCK-8 reagent per well, and then incubated at 37° C. for 2-4 hours. The 96-well plate was read on a TECAN microplate reader, and the absorbance value at 450 nm wavelength was taken.
(§5) The effect of different concentrations of the compound on cell viability was calculated by the following equation: [absorption value of the experimental group−absorption value of pure cell culture medium without the cells or the compound]/[absorption value of the control group with the tumor cells but no testing compound−absorption value of pure cell culture medium without the cell or the compound]×100%.
(§6) The above data were precessed by software, and the IC50 value was the concentration of the compound corresponding to the 50% inhibition rate of cell growth.
(§7) Based on the above test method of the compound on cell viability, a variety of […] cancer cell lines were tested, using multiple myeloma MM.1S, breast cancer MDA-MB-231 and leukemia MV4-11 cell lines as exemples. Using this test method, the IC50 values of partial compounds in the examples of the present invention measured in multiple myeloma MM.1S, breast cancer MDA-MB-231 cell lines and leukemia MV4-11 cell lines were shown in Table 2.

Assay [3] deals with BRD4 BD1 protein (Homo sapiens (Human), UniProt O60885). Briefly: Fluorescence polarization binding affinity (Ki) with BRD4 BD1 protein. Particulars: fluorescence polarization; Ki calculated from IC50.
Assay [4] has as its target BRD4 BD2 protein (Homo sapiens (Human), UniProt O60885). Briefly: Fluorescence polarization binding affinity (Ki) with BRD4 BD2 protein. On the set-up: BRD4 BD2 Ki: reference not given here. To be noted: fluorescence polarization; Ki calculated from IC50.
The subject of assay [5] is breast cancer MDA-MB-231 cell line. Briefly: Cell viability (CCK-8), breast cancer MDA-MB-231. Format: cell-based. Particulars: Homo sapiens, 96 h; MDA-MB-231 cells, 4 days, CCK-8, 50% inhibition of cell growth. Here is the method: as §1, §2, §3, §4, §5, §6, §7

The term IC50 denotes the midpoint of a concentration-inhibition curve. In general, Ki refers to the dissociation constant of the complex between target and ligand, obtained from inhibition or displacement. Regarding `Cc1nnn2c1-c1ccc(C3=CCN(C4CCCC4)CC3)cc1C(Nc1cc(Cl)ccc1F)CC2` (stereo not drawn) [BH190, N-(5-chloro-2-fluorophenyl)-9-(1-cyclopentyl-1,2,3,6-tetrahydropyridin-4-yl)-1-methyl-6,7-dihydro-5H-benzo[c][1,2,3]triazolo[1,5-a]azepin-7-amine 2,2,2-trifluoroacetate], the results for the 50% inhibitory concentration (IC50) in assay [1] and in assay [2] were 248 nM and 62.8 nM, respectively. The Ki was 1620 nM in assay [3]; 12.9 nM and 27.9 nM in assay [4].
As to `CC(=O)N1CC=C(c2ccc3c(c2)C(Nc2cc(Cl)ccc2F)CCn2nnc(C)c2-3)CC1` (stereo not drawn) [BH192, 1-(4-(7-((5-chloro-2-fluorophenyl)amino)-1-methyl-6,7-dihydro-5H-benzo[c][1,2,3]triazolo[1,5-a]azepin-9-yl)-3,6-dihydropyridin-1 (2H)-yl)ethan-1-one], the results for the IC50 in assay [1] and in assay [2] were 6.15 nM and 0.21 nM, respectively. Further, the Ki in assay [3] is 106 nM; in assay [4] it was 3.45 nM.
`COc1ccc2c(c1)C(Nc1ccc(C#N)cc1)CCc1onc(C)c1-2` (stereo not drawn) [FA06, 4-(8-methoxy-1-methyl-5,6-dihydro-4H-benzo[6,7]cyclohepta[1,2-d]isoxazol-6-yl)aminobenzonitrile]: the IC50 in assay [1] is 6.05 nM; in assay [5], 89 nM. Besides, the figures for the Ki in assay [3] and in assay [4] were 83.1 nM and 55.9 nM, respectively.
As for `Cc1nnn2c1-c1ccc(-c3cnn(C)c3)cc1C(Nc1ccccc1N(C)C)CC2` (stereo not drawn) [LB01, N^1,N^1-dimethyl-N^2-(1-methyl-9-(1-methyl-1H-pyrazol-4-yl)-6,7-dihydro-5H-benzo[c][1,2,3]triazolo[1,5-a]azepin-7-yl)benzene-1,2-diamine], the IC50 worked out at 4.28 nM in assay [1] and 450 nM in assay [5]. Moreover, the Ki in assay [3] was 94.8 nM; in assay [4], 26.9 nM.
In the same order, the values of `COC(=O)c1ccc(NC2CCn3nnc(C)c3-c3ccc(-c4cnn(C)c4)cc32)cc1` (stereo not drawn) [LB37, methyl 4-((1-methyl-9-(1-methyl-1H-pyrazol-4-yl)-6,7-dihydro-5H-benzo[c][1,2,3]triazolo[1,5-a]azepin-7-yl)amino)benzoate] are 2.03 nM, 43 nM, 45 nM and 10.9 nM.
Consider `Cc1nnn2c1-c1ccc(-c3cnn(C)c3)cc1C(Nc1cccc(CO)c1)CC2` (stereo not drawn) [LB164, (3-((1-methyl-9-(1-methyl-1H-pyrazol-4-yl)-6,7-dihydro-5H-benzo[c][1,2,3]triazolo[1,5-a]azepin-7-yl)amino)phenyl)methanol], for which the values for the IC50 in assay [1] and in assay [2] were 26 nM and 39.3 nM, respectively. In addition, the inhibition constant (Ki) in assay [3] is 95.7 nM; in assay [4] it was 12.7 nM.
For the compound `Cc1nnn2c1-c1ccc(-c3cnn(C)c3)cc1C(Nc1ccccc1CO)CC2` (stereo not drawn) [LB192, (2-((1-methyl-9-(1-methyl-1H-pyrazol-4-yl)-6,7-dihydro-5H-benzo[c][1,2,3]triazolo[1,5-a]azepin-7-yl)amino)phenyl)methanol], the concentration for half-maximal inhibition (IC50) in assay [1] was less than 1 nM; in assay [2] it was less than 0.1 nM. Also, the Ki in assay [3] was 94.6 nM; in assay [4], 16.1 nM.
Take `CNC(=O)Cc1cccc(NC2CCn3nnc(C)c3-c3ccc(-c4cnn(C)c4)cc32)c1` (stereo not drawn) [LC10, N-methyl-2-(3-((1-methyl-9-(1-methyl-1H-pyrazol-4-yl)-6,7-dihydro-5H-benzo[c][1,2,3]triazolo[1,5-a]azepin-7-yl)amino)phenyl)acetamide]: the IC50 in assay [1] is 104 nM; in assay [2], 12.8 nM. In addition, the Ki in assay [3] is 69.3 nM. In addition, the “BRD4 BD2 Ki” value in assay [4] was “<Kd”.
For `CNC(=O)Cc1ccccc1NC1CCn2nnc(C)c2-c2ccc(-c3cnn(C)c3)cc21` (stereo not drawn) [LC11, N-methyl-2-(2-((1-methyl-9-(1-methyl-1H-pyrazol-4-yl)-6,7-dihydro-5H-benzo[c][1,2,3]triazolo[1,5-a]azepin-7-yl)amino)phenyl)acetamide], the results for the IC50 in assay [1] and in assay [2] were 25.2 nM and 15.4 nM, respectively. In addition, the inhibition constant Ki in assay [3] is 7.8 nM. For the same compound, in assay [4], the “BRD4 BD2 Ki” value is “<Kd”.
As for `CCN1CC=C(c2ccc3c(c2)C(Nc2ccc(Cl)cc2)CCn2nnc(C)c2-3)CC1` (stereo not drawn) [LD23, N-(4-chlorophenyl)-9-(1-ethyl-1,2,3,6-tetrahydropyridin-4-yl)-1-methyl-6,7-dihydro-5H-benzo[c][1,2,3]triazolo[1,5-a]azepin-7-amine 2,2,2-trifluoroacetate], the IC50 in assay [1] was 443 nM; in assay [2], 7.32 nM. Besides, the Ki in assay [3] was 334 nM; in assay [4], 41.5 nM.
In the same order, the values of `Cc1nnn2c1-c1ccc(C3=CCN(C(C)C)CC3)cc1C(Nc1ccc(Cl)cc1)CC2` (stereo not drawn) [LD24, N-(4-chlorophenyl)-9-(1-isopropyl-1,2,3,6-tetrahydropyridin-4-yl)-1-methyl-6,7-dihydro-5H-benzo[c][1,2,3]triazolo[1,5-a]azepin-7-amine 2,2,2-trifluoroacetate] are 447 nM, 19 nM, 293 nM and 21.6 nM.
For the compound `Cc1nnn2c1-c1ccc(C3=CCN(C4CCCCC4)CC3)cc1C(Nc1ccc(F)c(Cl)c1)CC2` (stereo not drawn) [LD76, N-(3-chloro-4-fluorophenyl)-9-(1-cyclohexyl-1,2,3,6-tetrahydropyridin-4-yl)-1-methyl-6,7-dihydro-5H-benzo[c][1,2,3]triazolo[1,5-a]azepin-7-amine 2,2,2-trifluoroacetate], the IC50 in assay [1] is 879 nM; in assay [2], 106 nM. For the same compound, the Ki was 1060 nM in assay [3]; 10.7 nM and 36.1 nM in assay [4].
As for `Cc1nnn2c1-c1ccc(-c3cnn(C)c3)cc1C(Nc1ccc(Cl)cc1)CC2` (stereo not drawn) [RA180, N-(4-chlorophenyl)-1-methyl-9-(1-methyl-1H-pyrazol-4-yl)-6,7-dihydro-5H-benzo[c][1,2,3]triazolo[1,5-a]azepin-7-amine], the results for the half-inhibitory concentration (IC50) in assay [1] and in assay [5] were 2.34 nM and 11 nM, respectively. For the same compound, the inhibitory constant (Ki) is 33.7 nM in assay [3] and 7.6 nM in assay [4].
With `CCn1cc(-c2ccc3c(c2)C(Nc2ccc(Cl)cc2)CCn2nnc(C)c2-3)cn1` (stereo not drawn) [RB05, N-(4-chlorophenyl)-9-(1-ethyl-1H-pyrazol-4-yl)-1-methyl-6,7-dihydro-5H-benzo[c][1,2,3]triazolo[1,5-a]azepin-7-amine], the IC50 is 2.32 nM in assay [1], less than 0.1 nM in assay [2] and 1 nM in assay [5]. Moreover, the values for the Ki in assay [3] and in assay [4] were 23.2 nM and 5.73 nM, respectively.
For `Cc1nnn2c1-c1ccc(-c3cnc4[nH]cnc4c3)cc1C(Nc1ccc(Cl)cc1)CC2` (stereo not drawn) [RB43, N-(4-chlorophenyl)-9-(3H-imidazo[4,5-b]pyridin-6-yl)-1-methyl-6,7-dihydro-5H-benzo[c][1,2,3]triazolo[1,5-a]azepin-7-amine], the IC50 in assay [1] came to 1.1 nM; in assay [5], 105 nM. Further, the Ki in assay [3] was 45.8 nM; in assay [4] it was 14 nM.
On to `Cc1nnn2c1-c1ccc(-c3cn(C)nn3)cc1C(Nc1ccc(Cl)cc1)CC2` (stereo not drawn) [RB48, N-(4-chlorophenyl)-1-methyl-9-(1-methyl-1H-1,2,3-triazol-4-yl)-6,7-dihydro-5H-benzo[c][1,2,3]triazolo[1,5-a]azepin-7-amine], for which the IC50 in assay [1] came out at 2.5 nM; in assay [5], 65 nM. In addition, the Ki in assay [3] is 45.1 nM; in assay [4], 16.5 nM.
On to `Cc1nnn2c1-c1ccc(C3=CCN(C(C)C)CC3)cc1[C@H](Nc1cccc(Cl)c1)CC2` [RE13 (R), (7R)—N-(3-chlorophenyl)-9-(1-isopropyl-1,2,3,6-tetrahydropyridin-4-yl)-1-methyl-6,7-dihydro-5H-benzo[c][1,2,3]triazolo[1,5-a]azepin-7-amine 2,2,2-trifluoroacetate], for which the IC50 stood at 546 nM in assay [1] and 126 nM in assay [2]. Moreover, the results for the Ki in assay [3] and in assay [4] were 1420 nM and 14.8 nM, respectively.
